Reference: PubChem BioAssay AID1745844 (Carcinogenic Potency Database (CPDB), 2022)
Calls of active or inactive are those of the source. No rule for the calls is given here.

Test system: rodent lifetime carcinogenesis bioassay, tumor incidence TD50
Assay: chronic cancer bioassays in animals – CPDB, compiled studies (AID 1745844)
Settings: rat, in feed

Compound: OCC(CO)(CBr)CBr
- TD50 (strain Fischer 344, males, site: kidney, lesion: tubule adenoma, dosed 12 weeks, study length 103 weeks): 970 mg/kg/day
- TD50 (strain Fischer 344, males, site: kidney, lesion: tubule adenoma, dosed 104 weeks, study length 105 weeks): 1550 mg/kg/day
- TD50 (strain Fischer 344, males, site: liver, lesion: hepatocellular adenoma + hepatoblastoma + hepatocellular carcinoma, dosed 12 weeks, study length 103 weeks): 702 mg/kg/day
- TD50 (strain Fischer 344, males, site: liver, lesion: hepatocellular adenoma + hepatoblastoma + hepatocellular carcinoma, dosed 104 weeks, study length 105 weeks): 1840 mg/kg/day
- TD50 (strain Fischer 344, males, site: lung, lesion: alveolar/bronchiolar adenoma + alveolar/bronchiolar carcinoma, dosed 12 weeks, study length 103 weeks): 52.4 mg/kg/day
- TD50 (strain Fischer 344, males, site: lung, lesion: alveolar/bronchiolar adenoma + alveolar/bronchiolar carcinoma, dosed 104 weeks, study length 105 weeks): 729 mg/kg/day
- TD50 (strain Fischer 344, males, site: lung, lesion: alveolar/bronchiolar adenoma, dosed 12 weeks, study length 103 weeks): 73.1 mg/kg/day
- TD50 (strain Fischer 344, males, site: lung, lesion: alveolar/bronchiolar carcinoma, dosed 12 weeks, study length 103 weeks): 327 mg/kg/day
- TD50 (strain Fischer 344, males, site: lung, lesion: alveolar/bronchiolar carcinoma, dosed 104 weeks, study length 105 weeks): 1300 mg/kg/day
- TD50 (strain Fischer 344, males, site: lung, lesion: squamous-cell carcinoma, dosed 12 weeks, study length 103 weeks): 484 mg/kg/day
- TD50 (strain Fischer 344, males, site: mammary gland, lesion: adenoma + fibroadenoma, dosed 104 weeks, study length 105 weeks): 262 mg/kg/day
- TD50 (strain Fischer 344, males, site: mammary gland, lesion: fibroadenoma, dosed 12 weeks, study length 103 weeks): 78.3 mg/kg/day
- TD50 (strain Fischer 344, males, site: mammary gland, lesion: fibroadenoma, dosed 104 weeks, study length 105 weeks): 275 mg/kg/day
- TD50 (strain Fischer 344, males, site: palate + tongue, lesion: squamous-cell carcinoma + squamous-cell papilloma, dosed 12 weeks, study length 103 weeks): 24 mg/kg/day
- TD50 (strain Fischer 344, males, site: palate + tongue, lesion: squamous-cell papilloma, dosed 12 weeks, study length 103 weeks): 24.6 mg/kg/day
- TD50 (strain Fischer 344, males, site: palate + tongue, lesion: squamous-cell papilloma, dosed 104 weeks, study length 105 weeks): 300 mg/kg/day
- TD50 (strain Fischer 344, males, site: palate, lesion: squamous-cell papilloma, dosed 12 weeks, study length 103 weeks): 115 mg/kg/day
- TD50 (strain Fischer 344, males, site: palate, lesion: squamous-cell papilloma, dosed 104 weeks, study length 105 weeks): 808 mg/kg/day
- TD50 (strain Fischer 344, males, site: pancreas, lesion: acinar-cell adenoma, dosed 12 weeks, study length 103 weeks): 193 mg/kg/day
- TD50 (strain Fischer 344, males, site: pancreas, lesion: acinar-cell adenoma, dosed 104 weeks, study length 105 weeks): 516 mg/kg/day
- TD50 (strain Fischer 344, males, site: pancreatic islets, lesion: islet-cell adenoma + islet-cell carcinoma, dosed 104 weeks, study length 105 weeks): 208 mg/kg/day
- TD50 (strain Fischer 344, males, site: pituitary gland, lesion: pars distalis adenoma + pars distalis carcinoma, dosed 104 weeks, study length 105 weeks): 462 mg/kg/day
- TD50 (strain Fischer 344, males, site: pituitary gland, lesion: pars distalis adenoma, dosed 12 weeks, study length 103 weeks): 67.3 mg/kg/day
- TD50 (strain Fischer 344, males, site: pituitary gland, lesion: pars distalis adenoma, dosed 104 weeks, study length 105 weeks): 493 mg/kg/day
- TD50 (strain Fischer 344, males, site: preputial gland, lesion: adenoma + carcinoma, dosed 12 weeks, study length 103 weeks): 39 mg/kg/day
- TD50 (strain Fischer 344, males, site: preputial gland, lesion: adenoma + carcinoma, dosed 104 weeks, study length 105 weeks): 793 mg/kg/day
- TD50 (strain Fischer 344, males, site: preputial gland, lesion: adenoma, dosed 12 weeks, study length 103 weeks): 22.8 mg/kg/day
- TD50 (strain Fischer 344, males, site: preputial gland, lesion: adenoma, dosed 104 weeks, study length 105 weeks): 819 mg/kg/day
- TD50 (strain Fischer 344, males, site: seminal vesicle, lesion: adenoma + carcinoma, dosed 12 weeks, study length 103 weeks): 453 mg/kg/day
- TD50 (strain Fischer 344, males, site: skin, lesion: basal-cell adenoma + basal-cell carcinoma + keratoacanthoma + squamous-cell carcinoma + squamous-cell papilloma + trichoepitheliom, dosed 104 weeks, study length 105 weeks): 166 mg/kg/day
- TD50 (strain Fischer 344, males, site: skin, lesion: basal-cell adenoma + basal-cell carcinoma + trichoepithelioma, dosed 104 weeks, study length 105 weeks): 720 mg/kg/day
- TD50 (strain Fischer 344, males, site: skin, lesion: basal-cell adenoma + keratoacanthoma + squamous-cell carcinoma + squamous-cell papilloma + trichoepithelioma, dosed 12 weeks, study length 103 weeks): 16.9 mg/kg/day
- TD50 (strain Fischer 344, males, site: skin, lesion: basal-cell adenoma + trichoepithelioma, dosed 12 weeks, study length 103 weeks): 64.6 mg/kg/day
- TD50 (strain Fischer 344, males, site: skin, lesion: basal-cell adenoma, dosed 12 weeks, study length 103 weeks): 82.3 mg/kg/day
- TD50 (strain Fischer 344, males, site: skin, lesion: basal-cell adenoma, dosed 104 weeks, study length 105 weeks): 1530 mg/kg/day
- TD50 (strain Fischer 344, males, site: skin, lesion: keratoacanthoma, dosed 12 weeks, study length 103 weeks): 42.5 mg/kg/day
- TD50 (strain Fischer 344, males, site: skin, lesion: keratoacanthoma, dosed 104 weeks, study length 105 weeks): 235 mg/kg/day
- TD50 (strain Fischer 344, males, site: skin, lesion: squamous-cell carcinoma + squamous-cell papilloma, dosed 12 weeks, study length 103 weeks): 21.7 mg/kg/day
- TD50 (strain Fischer 344, males, site: skin, lesion: squamous-cell carcinoma + squamous-cell papilloma, dosed 104 weeks, study length 105 weeks): 1130 mg/kg/day
- TD50 (strain Fischer 344, males, site: skin, lesion: squamous-cell papilloma, dosed 12 weeks, study length 103 weeks): 46.2 mg/kg/day
- TD50 (strain Fischer 344, males, site: skin, lesion: squamous-cell papilloma, dosed 104 weeks, study length 105 weeks): 1130 mg/kg/day
- TD50 (strain Fischer 344, males, site: subcutaneous tissue, lesion: fibroma, dosed 12 weeks, study length 103 weeks): 111 mg/kg/day
- TD50 (strain Fischer 344, males, site: subcutaneous tissue, lesion: fibroma, dosed 104 weeks, study length 105 weeks): 271 mg/kg/day
- TD50 (strain Fischer 344, males, site: subcutaneous tissue, lesion: fibrosarcoma + fibroma + sarcoma, dosed 12 weeks, study length 103 weeks): 87.3 mg/kg/day
- TD50 (strain Fischer 344, males, site: subcutaneous tissue, lesion: fibrosarcoma + fibroma + sarcoma, dosed 104 weeks, study length 105 weeks): 221 mg/kg/day
- TD50 (strain Fischer 344, males, site: subcutaneous tissue, lesion: fibrosarcoma + sarcoma, dosed 12 weeks, study length 103 weeks): 654 mg/kg/day
- TD50 (strain Fischer 344, males, site: subcutaneous tissue, lesion: fibrosarcoma + sarcoma, dosed 104 weeks, study length 105 weeks): 1080 mg/kg/day
- TD50 (strain Fischer 344, males, site: subcutaneous tissue, lesion: sarcoma, dosed 104 weeks, study length 105 weeks): 1550 mg/kg/day
- TD50 (strain Fischer 344, males, site: testis, lesion: interstitial-cell adenoma, bilateral + interstitial-cell adenoma, dosed 12 weeks, study length 103 weeks): 5.94 mg/kg/day
- TD50 (strain Fischer 344, males, site: testis, lesion: interstitial-cell adenoma, bilateral + interstitial-cell adenoma, dosed 104 weeks, study length 105 weeks): 66.5 mg/kg/day
- TD50 (strain Fischer 344, males, site: thyroid gland, lesion: c-cell adenoma + c-cell carcinoma, bilateral + c-cell carcinoma, dosed 104 weeks, study length 105 weeks): 675 mg/kg/day
- TD50 (strain Fischer 344, males, site: thyroid gland, lesion: c-cell carcinoma, bilateral + c-cell carcinoma, dosed 104 weeks, study length 105 weeks): 1920 mg/kg/day
- TD50 (strain Fischer 344, males, site: thyroid gland, lesion: follicular-cell adenoma + follicular-cell carcinoma, dosed 12 weeks, study length 103 weeks): 82.6 mg/kg/day
- TD50 (strain Fischer 344, males, site: thyroid gland, lesion: follicular-cell adenoma + follicular-cell carcinoma, dosed 104 weeks, study length 105 weeks): 629 mg/kg/day
- TD50 (strain Fischer 344, males, site: thyroid gland, lesion: follicular-cell adenoma, dosed 12 weeks, study length 103 weeks): 132 mg/kg/day
- TD50 (strain Fischer 344, males, site: thyroid gland, lesion: follicular-cell carcinoma, dosed 104 weeks, study length 105 weeks): 1110 mg/kg/day
- TD50 (strain Fischer 344, males, site: tongue, lesion: squamous-cell papilloma, dosed 12 weeks, study length 103 weeks): 30.8 mg/kg/day
- TD50 (strain Fischer 344, males, site: tongue, lesion: squamous-cell papilloma, dosed 104 weeks, study length 105 weeks): 500 mg/kg/day
- TD50 (strain Fischer 344, males, site: urinary bladder, lesion: transitional-cell carcinoma + transitional-cell papilloma, dosed 12 weeks, study length 103 weeks): 223 mg/kg/day
- TD50 (strain Fischer 344, males, site: urinary bladder, lesion: transitional-cell carcinoma + transitional-cell papilloma, dosed 104 weeks, study length 105 weeks): 2320 mg/kg/day
- TD50 (strain Sprague-Dawley Spartan, females, site: any site (literature study), lesion: several types, types named in the paper, dosed 104 weeks, study length 104 weeks): 1730 mg/kg/day (inactive)
- carcinogen call (strain Sprague-Dawley Spartan, females, site: liver, lesion: hepatocellular carcinoma, dosed 104 weeks, study length 104 weeks): negative (inactive)
- TD50 (strain Sprague-Dawley Spartan, females, site: liver, lesion: hepatocellular hyperplastic nodule, dosed 104 weeks, study length 104 weeks): 2550 mg/kg/day (inactive)
- carcinogen call (strain Sprague-Dawley Spartan, males, site: any site (literature study), lesion: several types, types named in the paper, dosed 104 weeks, study length 104 weeks): negative (inactive)
- carcinogen call (strain Sprague-Dawley Spartan, males, site: liver, lesion: hepatocellular carcinoma, dosed 104 weeks, study length 104 weeks): negative (inactive)
- carcinogen call (strain Sprague-Dawley Spartan, males, site: liver, lesion: hepatocellular hyperplastic nodule, dosed 104 weeks, study length 104 weeks): negative (inactive)
